Experimental data taken from patent publication US9072728B2, “Treatment of severe distal colitis” (priority 2003, dated 2015).

What was measured:
[1] = system: human PMN transmigration across intestinal T84 cell monolayers; experiment: PMN transmigration across intestinal T84 cell monolayers (in-vitro model of colitis); type: cell-based; settings: for attenuation of PMN transepithelial migration: FIG. 2A, 2B
Description: Recruitment of polymorphonuclear neutrophils (PMN's) across intestinal epithelia and into the lumen, resulting in mucosal ulcerations or frank crypt abscesses, occurs in a broad spectrum of infectious, inflammatory, and allergic diarrheal states, including patients with inflammation of surgically constructed ileal reservoirs (“pouchitis”). The transmigration of PMN's across the epithelial barrier represents the pathognomonic feature of acute and active chronic intestinal inflammation. Since CLT has been previously shown to inhibit PMN chemotaxis in-vitro, this study tested if CLT may also be efficacious in attenuating PMN transmigration in an established in-vitro model of colitis using intestinal T84 cell monolayers.
The efficacy of CLT was compared to other antibiotic (metronidazole) and steroid (prednisone) agents that currently represent the standards of care for the topical or systemic therapy of pouchitis. […] […] As such, topical CLT treatment represents an attractive alternative for patients whose pouchitis disease has proven to be refractory to standard antibiotic or anti-inflammatory regimens. CLT may inhibit PMN transmigration by inhibiting the operation of plasma membrane K^+ or Ca^++ channels that are likely required to accommodate the volume changes necessary for PMN transmigration through epithelial intercellular tight junctions.

[2] = system: IL-8 secretion from cultured intestinal (T84) epithelia; experiment: IL-8 secretion from cultured intestinal epithelial T84 cells; type: cell-based; settings: T84 cells 30 minutes with CLT (30 μM) prior to stimulation with PMA, TNF or Salmonella typhimurium; each agonist; FIG. 3
Method: Intestinal epithelial cells play an active role in the mediation of intestinal inflammation through the production and regulated secretion of a variety of pro-inflammatory cytokines including IL-8. […] In these experiments, cultured intestinal epithelial T84 cells were incubated for 30 minutes with CLT (30 μM) prior to stimulation with either the protein kinase C stimulator PMA, the pro-inflammatory cytokine TNF, or a strain of pathogenic Salmonella typhimurium.

[3] = Serum CLT levels after rectal CLT suppositories (HPLC assay); type: in vivo, human
Method: (§1) The safety and efficacy of topical CLT therapy was also evaluated (delivered as a rectal suppository) in pediatric and adult patients with active pouchitis. In this study, subjects progressed through three escalating dosing levels: Step A (500 mg rectal suppositories applied twice daily); Step B (750 mg rectal suppositories applied twice daily); Step C (1,500 mg delivered twice daily). Serum levels (measured using a previously validated HPLC assay) were obtained within 3 to 6 hours after administering the morning (8 AM) dose of CLT and are presented in Table 2.

[4] = system: pediatric and adult patients with active pouchitis; experiment: Safety and clinical outcome of rectal CLT suppositories, open-labeled dose escalating trial; type: in vivo, human
Method: as §1
Rectal CLT delivered as a suppository, toxicity.
(§2) In this study, subjects were treated with escalating doses of study drug: Step A (500 mg rectal suppositories applied twice daily); Step B (750 mg rectal suppositories applied twice daily); Step C (1,500 mg delivered twice daily). Few parameters were measured including fecal lactoferrin, a marker of white blood cell excretion, to assess the effects of topical CLT therapy on PMN transmigration in patients with pouchitis. This assay has been previously validated as a quantitative biochemical measure of PMN transmigration in patients with infectious colitis and inflammatory bowel disease.

[5] = system: fecal lactoferrin, a marker of white blood cell excretion (PMN transmigration); experiment: Fecal lactoferrin in pouchitis patients treated with CLT suppositories; type: in vivo, human; settings: in 6 of 8 subjects studied; rectal suppository
Method: as §2

[6] = system: IL-8 secretion in Calu-3 cells; experiment: IL-8 in basolateral supernatants of Calu-3 cells (ELISA); type: cell-based; settings: for inhibition of secreted IL-8: Calu-3 cells stimulated with Salmonella, 30 μM test compound, 5 hours, FIG. 4
Method: Calu-3 cells were plated at subconfluency onto Costar inserts (3.0 μm membrane pore size) using standard techniques. After 24 hours, the apical well media was aspirated, and the Calu-3 cells were permitted to grow at the air/media interface. Basolateral media was changed every 2-3 days until they had grown into confluent monolayers (typically 7-10 days). Pathogenic Salmonella typhi were grown in Luria's both overnight at 37° C. (on the night prior to experimentation). The bacteria were washed twice in approximately 20 ml Hanks Balanced Salt Solution (HBSS). Prior to use, bacteria were spun down and resuspended in a total of 10 ml HBSS.
On the day of experimentation, inserts were washed in HBSS and placed into wells containing HBSS with either vehicle (0.0015% ethanol) or 30 μM of specific imidazole or non-imidazole containing test compound (all compounds were diluted from 20 mM working stock). 200 μL of bacteria were then loaded onto the apical compartment, and the cells were allowed to incubate for 5 hours. The basolateral buffer solutions from each insert were subsequently aspirated into eppendorfs and stored at −20° C. Calu-3 filters were cut and rotated for 30 minutes in 250 μL of lysis buffer [10 mL of PBS containing 1 Complete Protease Inhibitor Cocktail Tablet (Roche Pharmaceuticals) tablet and […]] at 4° C., spun at 14,000 for 20 minutes, and the clarified supernatant was stored at −20° C. Supernatant and lysate IL-8 protein content was measured by ELISA using standard techniques.

IL-8 within Calu-3 cells = experiment: IL-8 in Calu-3 cell lysates (ELISA); type: cell-based; settings: FIG. 5
[7] = Safety laboratory data for CLT retention enemas; type: in vivo, human; settings: change from baseline; retention enemas daily 3500-4000 mg; n=9
Method: In addition to efficacy data, safety data was also gathered for the use of CLT in retention enemas administered daily in a dose of 3500-4000 mg in the same group of patients. The following parameters were measured: urea nitrogen, Creatinine, aspartate aminotransferase (AST or SGOT), alanine aminotransferase (ALT or SGPT), alkaline phosphatase (Alk Phos), Total Bilirubin, Direct Bilirubin, Albumin, and Hematocrit.

[8] = cited from earlier work
[9] = oral CLT; mice, rats, and rabbits; cited from earlier work
[10] = oral CLT, experimental animals; cited from earlier work
[11] = oral CLT 60-90 mg/Kg body weight/day; cited from earlier work
[12] = cited from earlier work; remark: listed apart in the source
[13] = cited from earlier work; remark: listed apart in the source
[14] = PMN's and T84 cells incubated with 30 μM of study drug for 30 minutes
[15] = after application of one vaginal tablet

For Clc1ccccc1C(c1ccccc1)(c1ccccc1)n1ccnc1 [CLT, clotrimazole], the “attenuation of PMN transepithelial migration” value [1, 14] was “more potent”, the “inhibition of transepithelial migration” value ([1]; incubation of T84 monolayers alone with CLT, prior to layering of untreated PMN's, compared with PMN pretreatment, FIG. 1) was “equal or greater extent” and the PMN transmigration ([1]; pretreatment of PMN's alone with CLT (30 μM) for 30 minutes, FIG. 1) was “inhibited significantly”. For the same compound, the IL-8 secretion [2] was “inhibited completely”, the “Serum CLT levels, Step A” value ([3]; 500 mg rectal suppositories twice daily, 3 to 6 hours after morning dose, one line per subject) was “below the level of detection” and the “systemic absorption from ileal pouches (measured as serum CLT concentration)” value ([3]; rectal suppository) was “generally poor systemic absorption”. For the same compound, the “serum CLT level at the time of renal diagnosis” value ([3]; subject two, CLT suppositories) was 0.08 µM, the “adverse effect of CLT therapy” value ([4]; subject one) was “no significant adverse effect” and the “changes in urinary sediment or serum BUN or creatinine values” ([4]; subjects other than ZP) was “No other subjects participating in the study demonstrated any significant changes”. For the same compound, the tolerability ([4]; topical CLT delivered as a rectal suppository, pediatric and adult patients) was “generally well tolerated”, the “reduction of PMN excretion (fecal lactoferrin)” value [5] was 77% and the “inhibition of secreted IL-8” value [6] was “High level of IL-8 inhibition”. The “IL-8 in supernatants, time-course” value ([6]; at 5 hours, Calu-3 cells pretreated, FIGS. 6 and 7) was “no IL-8 in the supernatants”, the “effect on intracellular IL-8” value (IL-8 within Calu-3 cells; PMA stimulation) was “no effect” and the “decrease in IL-8 in Calu-3 cell lysates” value (IL-8 within Calu-3 cells; Salmonella stimulation, 30 μM test compound, 5 hours) was “virtually no decrease”. The “ALBUMIN, Change, MAX” value [7] was 1.1 G/DI, the “ALBUMIN, Change, MEAN” value [7] was 0.1 G/DI and the “ALBUMIN, Change, MEDIAN” value [7] was 0.0 G/DI. For the same compound, the “ALBUMIN, Change, MIN” value [7] was −0.4 G/DI, the “ALKALINE PHOSPHATASE, Change, MAX” value [7] was 37.0 U/L and the “ALKALINE PHOSPHATASE, Change, MEAN” value [7] was −2.4 U/L. For the same compound, the “ALKALINE PHOSPHATASE, Change, MEDIAN” value [7] was 1.0 U/L, the “ALKALINE PHOSPHATASE, Change, MIN” value [7] was −60.0 U/L and the “CREATININE, Change, MAX” value [7] was 0.1 mg/dL. The “CREATININE, Change, MEAN” value [7] was -0.0 mg/dL, the “CREATININE, Change, MEDIAN” value [7] was -0.1 mg/dL and the “CREATININE, Change, MIN” value [7] was -0.2 mg/dL. For the same compound, the “DIRECT BILIRUBIN, Change, MAX” value [7] was 0.1 mg/dL, the “DIRECT BILIRUBIN, Change, MEAN” value [7] was -0.0 mg/dL and the “DIRECT BILIRUBIN, Change, MEDIAN” value [7] was 0.0 mg/dL. For the same compound, the “DIRECT BILIRUBIN, Change, MIN” value [7] was -0.1 mg/dL, the “HEMATOCRIT, Change, MAX” value [7] was 5.9% and the “HEMATOCRIT, Change, MEAN” value [7] was −0.5%. The “HEMATOCRIT, Change, MEDIAN” value [7] was 0.5%, the “HEMATOCRIT, Change, MIN” value [7] was −4.7% and the “SGOT (AST), Change, MAX” value [7] was 8.0 U/L. The “SGOT (AST), Change, MEAN” value [7] was −2.2 U/L, the “SGOT (AST), Change, MEDIAN” value [7] was −1.0 U/L and the “SGOT (AST), Change, MIN” value [7] was −16.0 U/L. The “SGPT (ALT), Change, MAX” value [7] was 8.0 U/L, the “SGPT (ALT), Change, MEAN” value [7] was 0.9 U/L and the “SGPT (ALT), Change, MEDIAN” value [7] was 0.0 U/L. The “SGPT (ALT), Change, MIN” value [7] was −6.0 U/L, the “TOTAL BILIRUBIN, Change, MAX” value [7] was 0.2 mg/dL and the “TOTAL BILIRUBIN, Change, MEAN” value [7] was -0.0 mg/dL. For the same compound, the “TOTAL BILIRUBIN, Change, MEDIAN” value [7] was 0.0 mg/dL, the “TOTAL BILIRUBIN, Change, MIN” value [7] was -0.5 mg/dL and the “UREA NITROGEN (BUN), Change, MAX” value [7] was 4.0 mg/dL. The “UREA NITROGEN (BUN), Change, MEAN” value [7] was 0.1 mg/dL, the “UREA NITROGEN (BUN), Change, MEDIAN” value [7] was 0.0 mg/dL and the “UREA NITROGEN (BUN), Change, MIN” value [7] was -5.0 mg/dL. The serum levels ([8]; adults, oral dose of 200 mg of CLT) was 200 to 350 ng/mL, the “drug excreted unchanged in the urine” value ([8]; oral CLT) was “only a small fraction” and the route of elimination ([8]; oral CLT) was “largely in the feces via biliary excretion”. The “blood levels in oil solvent relative to tablet forms” value ([8]; oral, drug delivered in an oil solvent vs tablet) was 3-4 times higher, the LD50 [9] was 700-1,000 mg/Kg and the “subacute and chronic toxicity, organs involved” value [10] was “liver (degenerative changes) and the adrenal gland (increased fat deposition)”. The “time to reversal of liver and adrenal changes after discontinuation of therapy” value [10] was no more than 6 months, the “patients reporting gastrointestinal complaints (nausea, vomiting, and diarrhea)” value [11] was 13% and the “patients who developed chemical cystitis” value [11] was 4.4%. For the same compound, the “patients who developed contact dermatitis” value [11] was 2.2%, the “patients who found the therapy intolerable” value [11] was 6.5% and the “patients who tolerated CLT therapy moderately well” value [11] was 18.5%. For the same compound, the “patients who tolerated CLT therapy well” value [11] was 64%, the “serum CLT levels on continued therapy” value ([12]; after one week of continued daily therapy with oral tablets) was “seemed to decline” and the “adverse effect after first dose” value ([12]; normal volunteers, oral CLT in oil form, first dose of 1,000 mg) was “severe vertigo”. For the same compound, the “time to disappearance of all neurological symptoms after discontinuing CLT therapy” value ([12]; normal volunteers, oral CLT in oil form) was no more than 24 hours, the “side effects of mucosal preparations” value ([13]; 1% vaginal cream, 100 mg and 500 mg tablets) was “minimal side effects” and the concurrent plasma levels [13, 15] was “lower than 0.01 μg/ml”. The “time fungicidal concentrations of CLT detected in vaginal fluid” value [13, 15] was “up to 3 days” and the “central nervous system abnormalities” value ([13]; topical application of CLT) was “No central nervous system abnormalities”.
For OC(Cn1cncn1)(Cn1cncn1)c1ccc(F)cc1F [fluconazole], the “inhibition of secreted IL-8” value [6] was “Considerably less inhibition”.
For c1c[nH]cn1 [imidazole], the “inhibition of secreted IL-8” value [6] was “Considerably less inhibition”.
In the case of CCC(C)n1ncn(-c2ccc(N3CCN(c4ccc(OCC5COC(Cn6cncn6)(c6ccc(Cl)cc6Cl)O5)cc4)CC3)cc2)c1=O (stereo not shown) [itraconazole], the “inhibition of secreted IL-8” value [6] was “No inhibition”.
In the case of Cc1ncc([N+](=O)[O-])n1CCO [metronidazole], the “inhibition of PMN transmigration” value ([1]; PMN's and T84 cells incubated with 30 μM of study drug for 30 minutes, FIG. 2B) was 30-40%.
With C[C@]12C=CC(=O)C=C1CC[C@@H]1[C@@H]2C(=O)C[C@@]2(C)[C@H]1CC[C@]2(O)C(=O)CO [prednisone] the “attenuation of PMN transepithelial migration” value [1, 14] was “no attenuation”.
